Experimental findings from ChEMBL document CHEMBL1154255 (2009) are described below.

≈ marks a conversion by molar mass, not a printed value.

Common to all, as to format: functional
The test system of one experiment is BXPC-3. The experiment can be described thus: Growth inhibition of human BxPC3 cells after 48 hrs by sulforhodamine B assay. As to conditions: BXPC-3, 48 h.
The next experiment concerns SF-268. In words: Growth inhibition of human SF268 cells after 48 hrs by sulforhodamine B assay. As to conditions: SF-268, 48 h.
The next experiment has as its system NCI-H460. In words: Growth inhibition of human NCI-H460 cells after 48 hrs by sulforhodamine B assay. Particulars: NCI-H460, 48 h.
For another experiment, the system named is DU-145. In words: Growth inhibition of human DU145 cells after 48 hrs by sulforhodamine B assay. As to conditions: DU-145, 48 h. (In general: Sulforhodamine B stains cellular protein and so reports cell mass.)
The test system of the next experiment is MCF7. In words: Growth inhibition of human MCF7 cells after 48 hrs by sulforhodamine B assay. Particulars: MCF7, 48 h.
For the next experiment, the system named is KM-20L2. The experiment can be described thus: Growth inhibition of human KM20L2 cells after 48 hrs by sulforhodamine B assay. As to conditions: KM-20L2, 48 h.

The term GI50 denotes the concentration that inhibits growth by half. A lower GI50 goes with greater sensitivity of the cells. As to `COc1ccc(/C=C/c2cc(OC)cc(OC)c2)cc1` [TRISMETHOXYRESVERATROL], the GI50 in the experiment with BXPC-3 amounted to 0.35 mg/L (≈ 1.29 µM); in the experiment with SF-268, 0.56 mg/L (≈ 2.07 µM); in the experiment with NCI-H460, 0.62 mg/L (≈ 2.29 µM); in the experiment with DU-145, 1.5 mg/L (≈ 5.55 µM).

Regarding `COc1ccc(/C=C/c2cc(OC)c(O)c(OC)c2)cc1O`, the GI50 amounted to 5 mg/L (≈ 16.5 µM) in the experiment on BXPC-3, 4.9 mg/L (≈ 16.2 µM) with NCI-H460 and 6.3 mg/L (≈ 20.8 µM) in the experiment on DU-145.

Turning to `COc1cc(/C=C/c2ccc(OC)c(O)c2O)cc(OC)c1O`, the GI50 is greater than 10 mg/L in the experiment on BXPC-3; 5.5 mg/L (≈ 17.3 µM) with MCF7; greater than 10 mg/L with SF-268; greater than 10 mg/L with NCI-H460; greater than 10 mg/L in the experiment on KM-20L2; greater than 10 mg/L with DU-145.

Consider `COc1cc(/C=C/c2ccc(OC)c(OP(=O)([O-])[O-])c2OP(=O)([O-])[O-])cc(OC)c1OP(=O)([O-])[O-].[Na+].[Na+].[Na+].[Na+].[Na+].[Na+]`, for which the GI50 in the experiment on BXPC-3, in the experiment with MCF7, in the experiment on SF-268, in the experiment with NCI-H460, in the experiment with KM-20L2 and with DU-145 was greater than 10 mg/L in each case.

`COc1ccc(/C=C\c2cc(OC)c(OC)c(OC)c2)cc1O` [COMBRETASTATIN A4]: the GI50 was 0.39 mg/L (≈ 1.23 µM) in the experiment with BXPC-3; greater than 0.01 mg/L in the experiment on SF-268; 0.0006 mg/L (≈ 0.0019 µM) in the experiment on NCI-H460; 0.34 mg/L (≈ 1.07 µM) in the experiment with KM-20L2; 0.0008 mg/L (≈ 0.00253 µM) in the experiment on DU-145.

As to `Oc1ccc(/C=C\c2cc(O)cc(O)c2)cc1` [CIS-RESVERATROL], the GI50 came to 5 mg/L (≈ 21.9 µM) with SF-268 and 22 mg/L (≈ 96.4 µM) in the experiment with KM-20L2.

On to `COc1ccc(/C=C/c2cc(OC)c(OC)c(OC)c2)cc1O` [E-COMBRETASTATIN A-4], for which the GI50 amounted to 3.9 mg/L (≈ 12.3 µM) in the experiment with BXPC-3, 0.038 mg/L (≈ 0.12 µM) with NCI-H460 and 0.037 mg/L (≈ 0.117 µM) in the experiment on DU-145.

Turning to `COc1ccc(/C=C\c2cc(OC)cc(OC)c2)cc1` [8Z-3,4',5-TRIMETHOXYSTILBENE], the GI50 in the experiment with BXPC-3 amounted to 0.0034 mg/L (≈ 0.0126 µM); with SF-268 it was 0.0044 mg/L (≈ 0.0163 µM); with NCI-H460 it was 0.0028 mg/L (≈ 0.0104 µM); in the experiment on DU-145, 0.0054 mg/L (≈ 0.02 µM).
